Our source for the Drug uptake, Activity and inhibition values is ChEMBL document CHEMBL1212741, “Comparative efficacies of two antimony regimens to treat Leishmania braziliensis-induced cutaneous Leishmaniasis in rhesus macaques (Macaca mulatta)” (Antimicrob Agents Chemother, 2010).

The nature of data set [1]: Drug level in liver of Leishmania braziliensis MHOM/BR/2000/CP13396 infected rhesus monkey at 20 mg/kg, im qd for 21 days administered 9 weeks postinfection measured 95 days after compound dosing. In kind it is ADME, organism-based, Macaca mulatta. Further details: dose 20 mg/kg, route intramuscular. The following applies: in vivo, 2280 h.
Data set [2] can be described thus: Drug level in spleen of Leishmania braziliensis MHOM/BR/2000/CP13396 infected rhesus monkey at 20 mg/kg, im qd for 21 days administered 9 weeks postinfection measured 95 days after compound dosing. In kind it is ADME, organism-based, Macaca mulatta. Further details: dose 20 mg/kg, route intramuscular. The following applies: in vivo, 2280 h.
Data set [3] has as its system Rhesus monkey. Kind of data set: Toxicity in Leishmania braziliensis MHOM/BR/2000/CP13396 infected rhesus monkey assessed as incidence of toxicity symptoms at 5 mg/kg, im qd for 21 days administered 9 weeks postinfection. In kind it is organism-based, Macaca mulatta. Further details: dose 5 mg/kg, route intramuscular. The following applies: in vivo.
Data set [4] in a line: Drug level in kidney of Leishmania braziliensis MHOM/BR/2000/CP13396 infected rhesus monkey at 20 mg/kg, im qd for 21 days administered 9 weeks postinfection measured 55 days after compound dosing. In kind it is ADME, organism-based, Macaca mulatta. Also on record: dose 20 mg/kg, route intramuscular. To be noted: in vivo, 1320 h.
Data set [5] relates to Rhesus monkey. Kind of data set: Hepatotoxicity in Leishmania braziliensis MHOM/BR/2000/CP13396 infected rhesus monkey assessed as incidence of hepatocellular acidophilic necrosis at 5 mg/kg, im qd for 21 days administered 9 weeks postinfection. The class given is toxicity, organism-based, Macaca mulatta. Also on record: dose 5 mg/kg, route intramuscular. The following applies: in vivo.

Data set [6] in a line: Drug level in liver of Leishmania braziliensis MHOM/BR/2000/CP13396 infected rhesus monkey at 5 mg/kg, im qd for 21 days administered 9 weeks postinfection measured 95 days after compound dosing. In kind it is ADME, organism-based, Macaca mulatta. Further details: dose 5 mg/kg, route intramuscular. To be noted: in vivo, 2280 h.
Data set [7] deals with Rhesus monkey. Kind of data set: Hepatotoxicity in Leishmania braziliensis MHOM/BR/2000/CP13396 infected rhesus monkey assessed as incidence of hepatocellular acidophilic necrosis at 20 mg/kg, im qd for 21 days administered 9 weeks postinfection. In kind it is toxicity, organism-based, Macaca mulatta. The following applies: in vivo. Further details: dose 20 mg/kg, route intramuscular.

Data set [8] is described as follows: Drug level in spleen of Leishmania braziliensis MHOM/BR/2000/CP13396 infected rhesus monkey at 5 mg/kg, im qd for 21 days administered 9 weeks postinfection measured 95 days after compound dosing. The class given is ADME, organism-based, Macaca mulatta. Further details: dose 5 mg/kg, route intramuscular. The following applies: in vivo, 2280 h.
The nature of data set [9]: Drug level in liver of Leishmania braziliensis MHOM/BR/2000/CP13396 infected rhesus monkey at 20 mg/kg, im qd for 21 days administered 9 weeks postinfection measured 55 days after compound dosing. Also on record: dose 20 mg/kg, route intramuscular. In kind it is ADME, organism-based, Macaca mulatta. The following applies: in vivo, 1320 h.
A short description of data set [10]: Drug level in kidney of Leishmania braziliensis MHOM/BR/2000/CP13396 infected rhesus monkey at 20 mg/kg, im qd for 21 days administered 9 weeks postinfection measured 95 days after compound dosing. The class given is ADME, organism-based, Macaca mulatta. Further details: dose 20 mg/kg, route intramuscular. The following applies: in vivo, 2280 h.
Data set [11] can be described thus: Drug level in kidney of Leishmania braziliensis MHOM/BR/2000/CP13396 infected rhesus monkey at 5 mg/kg, im qd for 21 days administered 9 weeks postinfection measured 95 days after compound dosing. The class given is ADME, organism-based, Macaca mulatta. Also on record: dose 5 mg/kg, route intramuscular. The following applies: in vivo, 2280 h.
A short description of data set [12]: Drug level in liver of Leishmania braziliensis MHOM/BR/2000/CP13396 infected rhesus monkey at 5 mg/kg, im qd for 21 days administered 9 weeks postinfection measured 55 days after compound dosing. In kind it is ADME, organism-based, Macaca mulatta. Also on record: dose 5 mg/kg, route intramuscular. To be noted: in vivo, 1320 h.
Data set [13] in a line: Drug level in spleen of Leishmania braziliensis MHOM/BR/2000/CP13396 infected rhesus monkey at 5 mg/kg, im qd for 21 days administered 9 weeks postinfection measured 55 days after compound dosing. In kind it is ADME, organism-based, Macaca mulatta. Also on record: dose 5 mg/kg, route intramuscular. The following applies: in vivo, 1320 h.
Data set [14] concerns Rhesus monkey. Kind of data set: Toxicity in Leishmania braziliensis MHOM/BR/2000/CP13396 infected rhesus monkey assessed as incidence of toxicity symptoms at 20 mg/kg, im qd for 21 days administered 9 weeks postinfection. The class given is organism-based, Macaca mulatta. Also on record: dose 20 mg/kg, route intramuscular. To be noted: in vivo.
Data set [15] can be described thus: Drug level in kidney of Leishmania braziliensis MHOM/BR/2000/CP13396 infected rhesus monkey at 5 mg/kg, im qd for 21 days administered 9 weeks postinfection measured 55 days after compound dosing. The class given is ADME, organism-based, Macaca mulatta. Also on record: dose 5 mg/kg, route intramuscular. The following applies: in vivo, 1320 h.
The nature of data set [16]: Drug level in spleen of Leishmania braziliensis MHOM/BR/2000/CP13396 infected rhesus monkey at 20 mg/kg, im qd for 21 days administered 9 weeks postinfection measured 55 days after compound dosing. The class given is ADME, organism-based, Macaca mulatta. Also on record: dose 20 mg/kg, route intramuscular. To be noted: in vivo, 1320 h.
Data set [17] deals with Leishmania braziliensis. Kind of data set: […] activity against Leishmania braziliensis MHOM/BR/2000/CP13396 infected Rhesus monkey assessed as total decrease in parasite-induced skin lesions at 20 mg/kg, intramuscular daily for 21 days administered 9 weeks post infection. In kind it is functional, organism-based. Also on record: dose 20 mg/kg.
The subject of data set [18] is Leishmania braziliensis. Kind of data set: […] activity against Leishmania braziliensis MHOM/BR/2000/CP13396 infected Rhesus monkey assessed as relapse in parasite-induced skin lesions at 5 mg/kg, intramuscular daily for 21 days administered 9 weeks post infection. The class given is functional, organism-based. Also on record: dose 5 mg/kg.

Calls of active or inactive are those of the source. No cut-off for these calls is given here.

For the sequence “MEGLUMINE ANTIMONATE [listing 1 of 2 here]”, the Drug uptake in [1] is 1800 ng/g; in data set [2], 2220 ng/g; in [4] it was 698.3 ng/g; in data set [6], 669.3 ng/g; in [8], 476.7 ng/g; in data set [9], 4800 ng/g. Further, the Drug uptake is given as 313 ng/g in data set [10]; 152 ng/g in [11]; 2913 ng/g in data set [12]; 1433 ng/g in [13]; 500 ng/g in [15]; 1593 ng/g in data set [16]. For the same sequence, the Activity entry is reported as “Non-toxic” in the data set with Rhesus monkey [3], “Toxic” in the data set on Rhesus monkey [5], “Toxic” in the data set on Rhesus monkey [7] and “Non-toxic” with Rhesus monkey [14].
“MEGLUMINE ANTIMONATE [listing 2 of 2 here]”: the inhibition entry with Leishmania braziliensis [17] was “Active”. Moreover, the Activity with Leishmania braziliensis [18] stood at 50%.
